Data on 12 compounds can be found in US20150239831A1, “INHIBITORS OF CENTRAL NERVOUS SYSTEM VASOACTIVE INHIBITORY PEPTIDE RECEPTOR 2” (The Trustees Of Columbia University In The City Of New York, priority 2012, published 2015).

Assay [1] deals with T1, VIPR2 (Homo sapiens, UniProt P41587).
T1 sequence (P41587 24-438): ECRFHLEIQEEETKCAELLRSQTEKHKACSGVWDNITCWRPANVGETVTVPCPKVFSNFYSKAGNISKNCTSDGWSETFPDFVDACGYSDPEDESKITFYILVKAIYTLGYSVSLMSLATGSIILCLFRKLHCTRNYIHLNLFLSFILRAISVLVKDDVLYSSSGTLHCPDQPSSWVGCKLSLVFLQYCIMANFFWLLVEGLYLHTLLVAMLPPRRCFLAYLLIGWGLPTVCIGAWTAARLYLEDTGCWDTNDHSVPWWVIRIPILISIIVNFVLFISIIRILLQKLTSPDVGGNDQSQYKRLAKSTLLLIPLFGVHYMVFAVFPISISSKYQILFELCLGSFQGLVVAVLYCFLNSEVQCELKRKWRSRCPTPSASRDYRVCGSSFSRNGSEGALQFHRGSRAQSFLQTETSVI
The assay can be described thus: BRET-based VIPR2 activation assay (CAMYEL cAMP sensor, CHO cells, VIP background). Format: cell-based. The text has this: In such a system, a detector cell is used which expresses both the VIPR2 receptor and “CAMYEL,” a YFP-Epac-RLuc8 BRET sensor construct. This construct includes Epac1, a guanine nucleotide exchange factor activated by direct binding of cAMP, fused with an enhanced YFP and Renilla luciferase 8 (Rluc8) allowing BRET upon cAMP-induced conformational changes (Jiang et al., 2007, J Biol Chem. 282:10576-10584). In response to elevated cAMP levels, there is a conformational change in Epac and therefore a change in the proximity of the fused chromophores, Rluc8 and YFP, resulting in measurable energy transfer. Coexpression of this BRET construct with VIPR2, optionally tagged at the N-terminus with a signal peptide and FLAG epitope (SF-VIPR2), for example in HEK293 cells, allows for detection of a VIPR2-specific response to cAMP. BRET readout may be calculated by quantifying the ratio of the light emitted by the acceptor, YFP (λ=525 nm), over the emission from the donor, RLuc8 (λ=485 nm). The proximity of the donor and acceptor, and therefore the BRET ratio, decreases in the presence of cAMP. In non-limiting specific embodiments, a stable cell line may be generated for this assay using the Flp-In T-Rex system in HEK293 cells. This system allows site-specific single copy integration of the gene of interest and control of expression levels using the Tet-repressor site making receptor expression tetracycline-inducible. For example, a CAMYEL and VIPR2 expressing line may be induced with 0.01 μg/ml tetracycline, then, 24 hours later cells may be collected and distributed into 96-well plates. After treatment with candidate inhibitor compound, for example at 5, 1 and 0.5 μM concentrations, cells may be incubated with the light emitting luciferin, coelenterazine H, for 5 min and incubated for 5 min with VIP at increasing concentrations, for example ranging from […] to 10 μM. The fluorescence and luminescence may then be quantified, for example using a PHERAstar (BMG) plate reader. […] Alternatively, analogous experiments may be performed using human cells harvested from a patient having a VIPR2 copy number variation, for example (but not by way of limitation) pluripotent stem cells prepared from such a patient and then transfected with a CAMYEL construct.
Numerous cellular assays were developed that were able to detect VIP responses absent of interference from non-specific vasopressin receptors using this CHO based system. VIPR2 is a Gs coupled receptor. Activation of VIPR2 by VIP leads to both an elevation in cAMP signaling and the recruitment of β-arrestin. A variety of combinations can be transiently transfect into these CHO cells for the assessment of cellular responses to VIP. For the BRET readout CHO cell lines expressing an YFP-Epac-RLuc8 (CAMYEL) BRET sensor were used to detect changes in cAMP. This construct includes Epac1, a guanine nucleotide exchange factor activated by direct binding of cAMP, fused to an enhanced YFP and RLuc8 allowing a change in BRET upon cAMP-induced conformational changes. The key for medium to high throughput screening assays is the use of stable cell lines allowing the continuous assaying of multiple compounds with the ability to generate large numbers of cells for rapid use. In these lines VIPR2 was expressed as one of the stable cell lines assays. This was introduced into the CHO-Flp-IN to allow the generation of isogenic stable cell lines expressing high levels of VIPR2 under control of the CMV promoter. This has been introduced into this line together with the CAMYEL construct previously described. This allows for detection of VIPR2-specific responses to cAMP. EYFP fluorescence and RLuc8 luminescence is quantified in the presence of 5 μM light-emitting luciferin, coelenterazine H, using a PHERAstar (BMG) plate reader. BRET is calculated by quantifying the ratio of the light emitted by the acceptor, YFP (λ=525 nm), over the emission from the donor, RLuc8 (λ=485 nm).
3. […]

Another assay has as its target T2, VPAC1 (Homo sapiens, UniProt P32241).
T2 sequence (P32241 31-457): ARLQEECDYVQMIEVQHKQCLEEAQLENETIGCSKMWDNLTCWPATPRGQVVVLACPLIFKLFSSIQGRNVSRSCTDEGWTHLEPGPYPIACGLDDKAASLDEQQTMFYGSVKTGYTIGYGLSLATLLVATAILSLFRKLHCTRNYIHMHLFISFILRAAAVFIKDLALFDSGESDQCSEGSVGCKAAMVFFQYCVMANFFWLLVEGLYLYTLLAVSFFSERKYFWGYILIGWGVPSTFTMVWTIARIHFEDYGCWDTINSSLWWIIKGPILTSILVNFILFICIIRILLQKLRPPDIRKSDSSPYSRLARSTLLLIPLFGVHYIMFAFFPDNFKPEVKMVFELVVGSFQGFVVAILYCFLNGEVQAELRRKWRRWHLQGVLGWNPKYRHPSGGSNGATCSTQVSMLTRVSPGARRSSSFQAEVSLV
Particulars: Chu et al., 2010; cited from earlier work.

For a further assay, the target named is T3, PAC1 (Homo sapiens, UniProt P41586).
T3 sequence (P41586 21-468): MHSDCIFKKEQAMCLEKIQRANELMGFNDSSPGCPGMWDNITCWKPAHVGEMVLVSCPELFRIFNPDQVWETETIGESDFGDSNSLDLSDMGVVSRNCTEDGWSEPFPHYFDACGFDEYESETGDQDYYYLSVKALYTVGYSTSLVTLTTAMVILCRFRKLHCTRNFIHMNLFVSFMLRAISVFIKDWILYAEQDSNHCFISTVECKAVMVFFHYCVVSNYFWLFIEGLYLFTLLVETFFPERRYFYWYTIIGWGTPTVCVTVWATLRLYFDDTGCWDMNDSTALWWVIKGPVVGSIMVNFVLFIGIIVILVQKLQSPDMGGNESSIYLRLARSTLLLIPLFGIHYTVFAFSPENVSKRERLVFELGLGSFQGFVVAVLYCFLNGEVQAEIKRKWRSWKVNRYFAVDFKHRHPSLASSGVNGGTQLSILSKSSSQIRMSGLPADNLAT
The note with it: Chu et al., 2010; cited from earlier work.

The target of assay [2] is T1, VIPR2. The assay can be described thus: % Activity: inhibition of VIP-induced cAMP elevation and β-arrestin recruitment (Table 2). Format: cell-based. Further details: expressed in transfected cells; host or cells: HEK293 cells transfected with VIPR2 in pCDNA3.1 (as described). The essentials: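 Recruitment of β-arrestin measured by β-gal fragment complementation luminescence in HEK293 cells co-expressing VIPR2-ProLink and β-arrestin2-EA after 2 h compound at 37° C. VIP-driven cAMP rise in stable hVIPR2 HEK293 cells measured by HTRF after 30 min with inhibitor and VIP.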

[3] abbreviates: Table 3, read-out: IC50 (from BRET).

pIC50: −log10 of the molar value. Where two headings read alike, the source gives them in different places.

As for `O=C(N[C@H]1c2ccccc2C[C@H]1O)[C@H](Cc1ccccc1)C[C@H](O)CNS(=O)(=O)c1ccc([N+](=O)[O-])cc1` [Compound 1], the “VIPR2 inhibition in BRET-based assay (in words)” value on VIPR2 [1] (FIG. 1C, FIG. 5) is listed as “rightward shift”. In addition, on VPAC1, the “agonist or antagonist activities for VPAC1” value is “no detectable agonist or antagonist activities”. The “agonist or antagonist activities for PAC1” value at PAC1 is recorded as “no detectable agonist or antagonist activities”.

In the case of `O=C(N[C@H]1c2ccccc2C[C@H]1O)[C@H](Cc1ccccc1)C[C@H](O)CNS(=O)(=O)c1ccc(F)cc1` [Compound X105], at VIPR2 [1] (setting [3]), the pIC50 is 5.22.

As to `O=C(N[C@H]1c2ccccc2C[C@H]1O)[C@H](Cc1ccccc1)C[C@H](O)CNS(=O)(=O)c1ccc(Cl)cc1` [Compound X106], the pIC50 at VIPR2 [1] (Table 1, read-out: IC50) was 6.55; at VIPR2 [1] (setting [3]) it was 5.69.

`CC(O)c1ccc(S(=O)(=O)NC[C@@H](O)C[C@@H](Cc2ccccc2)C(=O)N[C@H]2c3ccccc3C[C@H]2O)cc1` (stereo partly shown) [Compound X107]: the pIC50 on VIPR2 [1] (setting [3]) is 4.39.

On to `O=C(N[C@H]1c2ccccc2C[C@H]1O)[C@H](Cc1ccccc1)C[C@H](O)CNS(=O)(=O)c1ccc2c(c1)CCC2` [Compound X108], for which the pIC50 on VIPR2 [1] (setting [3]) is 5.00.

In the case of `O=C(N[C@H]1c2ccccc2C[C@H]1O)[C@H](Cc1ccccc1)C[C@H](O)CNS(=O)(=O)c1ccc2c(c1)OCCO2` [Compound X109], the pIC50 on VIPR2 [1] (Table 1, read-out: IC50) was 6.69; at VIPR2 [1] (setting [3]), 4.47.

For `O=C(N[C@H]1c2ccccc2C[C@H]1O)[C@H](Cc1ccccc1)C[C@H](O)CNS(=O)(=O)c1ccc2c(c1)OCO2` [Compound X110], the pIC50 is 5.67 on VIPR2 [1] (Table 1, read-out: IC50) and 5.42 at VIPR2 [1] (setting [3]).

On to `CCc1ccc(S(=O)(=O)NC[C@@H](O)C[C@@H](Cc2ccccc2)C(=O)N[C@H]2c3ccccc3C[C@H]2O)cc1` [Compound X115], for which the pIC50 on VIPR2 [1] (Table 1, read-out: IC50) was 5.95; at VIPR2 [1] (setting [3]) it was 4.34.

Consider `CO[C@@H]1Cc2ccccc2[C@@H]1NC(=O)[C@H](Cc1ccccc1)C[C@H](O)CNS(=O)(=O)c1ccc(C(C)=O)cc1` [Compound X124], for which, on VIPR2 [1] (Table 4, read-out: IC50), the pIC50 was 4.12.

Take `CO[C@@H]1Cc2ccccc2[C@@H]1NC(=O)[C@H](Cc1ccccc1)C[C@H](O)CNS(=O)(=O)c1ccc(Cl)cc1` [Compound X126]: the pIC50 on VIPR2 [1] (Table 4, read-out: IC50) was 4.87.

On to `CO[C@H]1Cc2ccccc2[C@@H]1NC(=O)[C@H](Cc1ccccc1)C[C@H](O)CNS(=O)(=O)c1ccc2c(c1)OCCO2` [Compound X135], for which the pIC50 on VIPR2 [1] (Table 4, read-out: IC50) was 4.55.

Consider `O=C(N[C@H]1c2ccccc2C[C@H]1O)[C@H](Cc1ccccc1)C[C@H](O)CNS(=O)(=O)c1ccc([N+](=O)[O-])cc1` [Ref C1, reference compound], for which the pIC50 on VIPR2 [1] (Table 1, read-out: IC50) was 5.89. Moreover, the “% Activity” value at VIPR2 [2] came to 84.52%.
